We go through 2 substances from patent US20100099629A1, “OPHTHALMOLOGICAL COMPOSITION” (Nihon Tenganyaku Kenkyusho Co., LTD., priority 2002, published 2010).

Test [1] concerns rabbit corneal wound model. Put plainly: Corneal wound healing promotion action 1 (in vivo), wound of approximately 6 mm. The settings on record: 5 μM eye drop, 30 μl instillation. As for the experimental part: Using a male Japanese white rabbit, a wound of approximately 6 mm in diameter was produced in the cornea by inducing corneal epithelial abrasion in accordance with the method of Cintron et al. (Ophthalmic Res., 11, pp. 90-96 (1979)). The wound area was measured using the fluorescein-stained area as an index. The effects of the test compound on corneal wound healing were examined.
The eye drops containing the respective concentrations of the test compound were instilled (30 μl at a time) at 0, 3, 6, 9, 12, 18, 24, 27, 30, 33, 36, 42, and 48 hours after inducing corneal epithelial abrasion. In measuring the wound area, fluorescein staining was carried out and a photograph of the cornea was measured. The fluorescein-stained area of the photographed cornea was computed using an image analysis processing system.
In Tables 1 and 2, the respective values indicate the mean value±standard deviation (n=6). Statistical analysis was carried out using Dunnett's multiple comparison with respect to PBS with the area of the corneal wound portion immediately after (0 hours after) corneal epithelial abrasion being set to 100% (*p<0.05, **p<0.01; vs. control).

The subject of test [2] is rabbit corneal wound model. Put plainly: Corneal wound healing promotion action 2 (in vivo), wound of approximately 8 mm. The settings on record: 0.3% eye drop, 25 μl instillation. Here is the method:
Using the same method as (2) above, corneal epithelial abrasion was induced in a Japanese white rabbit to produce a wound of approximately 8 mm in diameter in the cornea. The wound area was measured using the fluorescein-stained area as an index to examine the effects on corneal wound healing.
The eye drops containing the respective concentrations of the test compound were instilled (25 μl at a time) at 0, 6, 12, 18, 24, 30, 36, 42, 48, and 54 hours after induction corneal epithelial abrasion. In measuring the wound area, fluorescein staining was carried out and a photograph of the cornea was measured. The fluorescein-stained area of the photographed cornea was computed using an image analysis processing system.
In Tables 3 and 4, the respective values indicate the mean value±standard deviation (n=6). Statistical analysis was carried out using Dunnett's multiple comparison with respect to physiological saline with the area of the corneal wound portion immediately after (0 hours after) corneal epithelial abrasion being set to 100% (*p<0.05, **p<0.01; vs. control).

Marks after values point to notes of the source that are not given here.

Turning to “EGF: polypeptide with a molecular weight of 6000, mitosis-promoting growth factor for corneal epithelium”, the “Healing ratio (%)” value was 0% in test [1] (0 hr (baseline)); 14.49 ± 3.42** % in test [1] (6 hr); 31.63 ± 1.29** % in test [1] (12 hr); 70.78 ± 6.91** % in test [1] (24 hr); 96.41 ± 3.97* % in test [1] (36 hr); 99.58 ± 1.03% in test [1] (48 hr).

hyaluronic acid: the “Healing ratio (%)” value in test [2] (0 hr (baseline)) is on record as 0%; in test [2] (12 hr), 13.98 ± 4.88* %; in test [2] (18 hr), 28.45 ± 3.37* %; in test [2] (24 hr), 60.78 ± 8.07** %; in test [2] (30 hr) it was 60.78 ± 8.07* %.
